Data on 7 molecules can be found in patent US8383139B2 (Bayer CropScience AG, priority 2008, dated 2013).

The test system of series [1] is Alternaria solani. Kind of series: Alternaria test (tomato)/protective. The class given is in vivo. To be noted: 72 h, 100 ppm active substance, protective, evaluation 3 days after inoculation, read-out: degree of effectiveness. On the procedure: • Solvents: 24.5 parts by weight of acetone • 24.5 parts by weight of dimethylacetamide • Emulsifier: 1 part by weight of alkylaryl polyglycol ether (polyoxyethylene (16) tristearylphenyl ether)
To prepare a suitable active substance composition, 1 part by weight of active substance is mixed with the given amounts of solvents and emulsifier and the concentrate is diluted to the desired concentration using water.
For the testing of protective effectiveness, young plants are sprayed with the active substance composition in the application rate given. After the spray coating has been dried on, the plants are inoculated with an aqueous suspension of spores of Alternaria solani. The plants are then placed in an incubation chamber at approximately 20° C. and 100% relative humidity.
Evaluation is carried out 3 days after the inoculation. In this connection, 0% means a degree of effectiveness corresponding to that of the control, while a degree of effectiveness of 100% means that no infestation is observed.

Series [2] concerns Uromyces appendiculatus. Description: Uromyces test (beans)/protective. The following applies: 240 h, 100 ppm active substance, protective, evaluation 10 days after inoculation, read-out: degree of effectiveness. The class given is in vivo. A digest of the protocol: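 Young bean plants were sprayed with compound (acetone/dimethylacetamide/emulsifier concentrate diluted in water), dried, then inoculated with U. appendiculatus spores. They were held 1 day at ~20 °C, 100% RH, then kept in a greenhouse at ~21 °C, ~90% RH. Efficacy was scored at 10 days post-inoculation (0% = control, 100% = no infestation).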

Series [3] deals with Sphaerotheca fuliginea. Kind of series: Sphaerotheca test (cucumber)/protective. In kind it is in vivo. The following applies: Podosphaera fuliginea, 168 h, 500 ppm active substance, protective, evaluation 7 days after inoculation, read-out: degree of effectiveness. The method in brief: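 Young cucumber plants sprayed at the stated rate with active substance in DMF/alkylaryl polyglycol ether emulsifier diluted in water, then inoculated with Sphaerotheca fuliginea spores one day later. Kept in greenhouse at 70% relative humidity, 23° C.; scored 7 days post-inoculation as % efficacy (0% = untreated control, 100% = no infestation).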

Series [4] has as its system Puccinia triticina. Description: Puccinia triticina test (wheat)/protective. In kind it is in vivo. To be noted: 192 h, 500 ppm active substance, protective, evaluation 8 days after inoculation, read-out: degree of effectiveness. A digest of the protocol: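 Protective test: young wheat plants sprayed with compound (in N,N-dimethylacetamide/emulsifier, diluted in water) at the stated rate, dried, then inoculated with Puccinia triticina spores; 48 h at 20 °C, 100% RH, then greenhouse ~20 °C, ~80% RH. Efficacy scored 8 days post-inoculation, 0% = untreated control, 100% = no infestation.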

The test system of series [5] is Septoria tritici. Kind of series: Septoria tritici test (wheat)/protective. The class given is in vivo. The following applies: Zymoseptoria tritici, 504 h, 500 ppm active substance, protective, evaluation 21 days after inoculation, read-out: degree of effectiveness. The method in brief:
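Young wheat plants sprayed with compound in dimethylacetamide/emulsifier-water, then inoculated with S. tritici spores once dry. Kept 48 h at 20 °C/100% RH, 60 h at 15 °C/100% RH, then greenhouse ~15 °C/80% RH. Scored 21 days post-inoculation as % efficacy versus untreated control.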

For series [6], the system named is Phakopsora pachyrhizi. Description: Phakopsora test (soybean)/protective. The following applies: 264 h, 500 ppm active substance, protective, evaluation 11 days after inoculation, read-out: degree of effectiveness. The class given is in vivo. On the procedure:
• Solvent: 28.5 parts by weight of acetone • Emulsifier: 1.5 parts by weight of polyoxyethylene alkylphenyl ether (polyoxy-ethylene (16) tristearylphenyl ether)
To prepare a suitable active substance composition, 1 part by weight of active substance is mixed with the given amounts of solvent and emulsifier and the concentrate is diluted to the desired concentration using water.
For the testing of protective effectiveness, young plants are sprayed with the active substance composition at the application rate given. One day after the spraying, the plants are sprayed with an aqueous suspension of spores of Phakopsora pachyrhizi. The plants remain in a greenhouse at 20° C. and 80% relative humidity.
Evaluation is carried out 11 days after the inoculation. In this connection, 0% means a degree of effectiveness corresponding to that of the control, while a degree of effectiveness of 100% means that no infestation is observed.

Series [7] can be described thus: log P by HPLC on reversed-phase columns (C 18), EEC Directive 79/831 Annex V.A8. In kind it is physicochemical. To be noted: reversed-phase C18 HPLC column, pH 2.3, [a] HPLC, acid region pH 2.3, 0.1% aqueous phosphoric acid and acetonitrile; read-out: log p.

For `Cc1cc(Oc2nc(Cc3ccc(Br)cc3)ns2)c(C)cc1N=CN(C)C(C)C` [Example 32, N′-(4-{[3-(4-bromobenzyl)-1,2,4-thiadiazol-5-yl]oxy}-2,5-dimethylphenyl)-N-methyl-N-(propan-2-yl)imidoformamide], the pest or weed control at 100 ppm in series [1] and in series [2] was at least 70% in each case. The pest or weed control at 500 ppm in series [3] was at least 70%; in series [4], at least 70%; in series [5] it was at least 70%; in series [6] it was at least 80%.
As to `CCN(C)C=Nc1cc(Cl)c(Oc2nc(Cc3ccc(Cl)cc3)ns2)cc1C` [Example 3, N′-(5-chloro-4-{[3-(4-chlorobenzyl)-1,2,4-thiadiazol-5-yl]oxy}-2-methylphenyl)-N-ethyl-N-methylimidoformamide], the pest or weed control at 100 ppm in series [1] and in series [2] was at least 70% each time. Further, the pest or weed control at 500 ppm in series [3] is at least 70%; in series [4], at least 70%; in series [5] it was at least 70%; in series [6], at least 80%.
With `CCN(C)C=Nc1cc(Cl)c(Oc2nc(C(C)c3ccc(Cl)cc3)ns2)cc1C` (centres unmarked) [Example 20, N′-[5-chloro-4-({3-[1-(4-chlorophenyl)ethyl]-1,2,4-thiadiazol-5-yl}oxy)-2-methylphenyl]-N-ethyl-N-methylimidoformamide], the chromatographic logP in series [7] was 2.39. The pest or weed control at 100 ppm in series [2] was at least 70%. Moreover, the pest or weed control at 500 ppm was at least 70% in series [3], at least 70% in series [4] and at least 80% in series [6].
As to `Cc1cc(Oc2nc(Cc3ccc(Cl)cc3)ns2)c(C)cc1N=CN(C)C(C)C` [Example 9, N′-(4-{[3-(4-chlorobenzyl)-1,2,4-thiadiazol-5-yl]oxy}-2,5-dimethylphenyl)-N-methyl-N-(propan-2-yl)imidoformamide], in series [7], the chromatographic logP is 2.03. Moreover, the pest or weed control at 100 ppm in series [1] and in series [2] was at least 70% throughout. Further, the pest or weed control at 500 ppm in series [3], in series [4] and in series [5] was at least 70% in each case.
On to `Cc1cc(Oc2nc(Cc3cccc(C(F)(F)F)c3)ns2)c(C)cc1N=CN1CCCCC1` [Example 13, 2,5-dimethyl-N-(piperidin-1-ylmethylidene)-4-({3-[3-(trifluoromethyl)benzyl]-1,2,4-thiadiazol-5-yl}oxy)aniline], for which the chromatographic logP in series [7] came out at 2.28. Also, the pest or weed control at 100 ppm in series [1] and in series [2] was at least 70% each time. The pest or weed control at 500 ppm in series [3], in series [4] and in series [5] was at least 70% throughout.
Consider `CCN(C)C=Nc1cc(Cl)c(Oc2nc(C(C)(C)c3ccc(Cl)cc3)ns2)cc1C` [Example 28, N′-[5-chloro-4-({3-[2-(4-chlorophenyl)propan-2-yl]-1,2,4-thiadiazol-5-yl}oxy)-2-methylphenyl]-N-ethyl-N-methylimidoformamide], for which the chromatographic logP in series [7] turned out to be 2.73. In addition, the pest or weed control at 100 ppm in series [1] and in series [2] was at least 70% each time. For the same molecule, the pest or weed control at 500 ppm in series [3], in series [4] and in series [5] was at least 70% in each case.
For the molecule `CCN(C)C=Nc1cc(C)c(Oc2nc(C(C)c3ccccc3)ns2)cc1C` (centres unmarked) [Example 5, N′-(2,5-dimethyl-4-{[3-(1-phenylethyl)-1,2,4-thiadiazol-5-yl]oxy}phenyl)-N-ethyl-N-methylimidoformamide], the chromatographic logP in series [7] was 1.92. In addition, the pest or weed control at 100 ppm in series [1] and in series [2] was at least 70% each time. Besides, the pest or weed control at 500 ppm in series [3] is at least 70%; in series [4], at least 70%; in series [6], at least 80%.
